Reference: patent US11491134B2, “Composition for inhibiting skin cell proliferation and/or anti-inflammation method for inhibiting skin cell proliferation and/or anti-inflammation and method for treating skin diseases and/or inflammatory diseases” (Industrial Technology Research Institute, priority 2019, dated 2022)

Test system: macrophages, RAW264.7 cells
Experiment: Inhibition rate on inflammation (anti-inflammatory activity): nitric oxide, Griess reagent, LPS-treated macrophages
Type: cell-based
Conditions: Mus musculus; for inhibition at 1.5625 µM: luteolin 1.5625 μM/0.45 μg/mL; for inhibition at 3.125 µM: luteolin 3.125 μM/0.89 μg/mL; for inhibition at 6.25 µM: luteolin 6.25 μM/1.79 μg/mL; for inhibition at 12.5 µM: luteolin 12.5 μM/3.58 μg/mL; for inhibition at 25 µM: luteolin 25 μM/7.16 μg/mL; for inhibition at 50 µM: luteolin 50 μM/14.31 μg/mL; for inhibition at 0.3125 µM: luteolin 0.3125 μM/0.09 μg/mL; for inhibition at 0.625 µM: luteolin 0.625 μM/0.18 μg/mL; for inhibition at 1.25 µM: luteolin 1.25 μM/0.36 μg/mL; for inhibition at 2.5 µM: luteolin 2.5 μM/0.72 μg/mL; for inhibition at 5 µM: luteolin 5 μM/1.43 μg/mL; for inhibition at 100 µM: luteolin 100 μM/28.62 μg/mL
Procedure: Dimethyl sulfoxide (DMSO) was used as a solvent to prepare apigenin test samples with different concentrations and luteolin test samples with different concentrations. 9 batches of experiments were performed, which respectively were Batch 1 to Batch 9. There were 6 independent experiments in each batch of experiments. In each independent experiment, inhibition rate of an apigenin test sample with a specific concentration on inflammation and inhibition rate of a luteolin test sample with a specific concentration on inflammation were determined, and inhibition rate of a combination of an apigenin test sample with the said specific concentration and a luteolin test sample with the said specific concentration on inflammation was determined. Between the independent experiments, concentrations of apigenin test samples used were different, and concentrations of luteolin test samples used were also different, however, mole ratios or weight ratios of apigenin test samples to luteolin test samples were the same. Moreover, between the batches of experiments, mole ratios or weight ratios of apigenin test samples to luteolin test samples were different. 5×10^4 macrophages, RAW264.7 cells, were inoculated in a 96-well culture plate and then placed in a 37° C. and 5% CO2 incubator for culturing overnight. After overnight culture, the supernatant was removed, and lipopolysaccharide (LPS) (50 ng/mL) and a test sample was added to the cells (refer to Table 2, and the cells of the induced group were treated with lipopolysaccharide and dimethyl sulfoxide while the cells of the control group were only treated with dimethyl sulfoxide) for reaction for 24 hours. Thereafter, the supernatant of each well in the culture plate was transferred to a new culture plate and reacted with Griess reagent (Promega, Cat. No. G2930), respectively, and then the absorbance of each well of the culture plate was determined at 540 nm by a continuous wavelength microplate reader to evaluate the content of nitric oxide (NO), and anti-inflammatory activity was calculated through the following formula: Anti-inflammation=(Induced group540 nm−Experimental group540 nm)/(Induced group540 nm−Control group540 nm) In this experiment, the synergistic effects of apigenin and luteolin were evaluated by CalcuSyn software (BIOSOFT). CalcuSyn software is an analysis software which is commonly used to analyze the drug dosage effect of single drug and multiple drugs at present. CalcuSyn software can be used to analyze drug complex interactions and automatically quantify various phenomena such as synergism and inhibition. CalcuSyn software can process the data of individual drugs and combination drugs with constant-ratio or on-constant-ratio, and can evaluate the interaction of combination drugs by the combination index (CI) (Chou and Talalay, Adv. Enzyme Regul. 22:27-55 (1984) calculated by CalcuSyn software. Calculation formula for the combination index is shown in the following: Combination index=C1/IC1+C2/IC2 C1 and C2 are the respective concentrations of the first compound and the second compound at which the activity of achieving a specific physiological or medical purpose is 50% (or 75%, or 90%) when the first compound and the second compound are analyzed in combination; IC1 and IC2 are the respective concentrations at which the activity of achieving a specific physiological or medical purpose of the first compound and the second compound is 50% (or 75%, or 90%) when the first compound and the second compound are independently analyzed. […]

`O=c1cc(-c2ccc(O)c(O)c2)oc2cc(O)cc(O)c12` [Luteolin, luteolin] showed an inhibition at 1.5625 µM (RAW264.7, Batch 1) of 0.1%, an inhibition at 3.125 µM (RAW264.7, Batch 1) of 21.4% and an inhibition at 6.25 µM (RAW264.7, Batch 1) of 37.2%. It also gave an inhibition at 12.5 µM (RAW264.7, Batch 1) of 56.3%, an inhibition at 25 µM (RAW264.7, Batch 1) of 84.1% and an inhibition at 50 µM (RAW264.7, Batch 1) of 99.9%. The inhibition at 0.78 µM (RAW264.7, Batch 2, luteolin 0.78 μM/0.22 μg/mL) was 0.1%, the inhibition at 1.5625 µM (RAW264.7, Batch 2) was 5.8% and the inhibition at 3.125 µM (RAW264.7, Batch 2) was 15.4%. For the same compound, the inhibition at 6.25 µM (RAW264.7, Batch 2) was 29.9%, the inhibition at 12.5 µM (RAW264.7, Batch 2) was 48.8% and the inhibition at 25 µM (RAW264.7, Batch 2) was 75.7%. The inhibition at 0.3125 µM (RAW264.7, Batch 3) was 0.1%, the inhibition at 0.625 µM (RAW264.7, Batch 3) was 0.1% and the inhibition at 1.25 µM (RAW264.7, Batch 3) was 0.1%. The inhibition at 2.5 µM (RAW264.7, Batch 3) was 5.1%, the inhibition at 5 µM (RAW264.7, Batch 3) was 49% and the inhibition at 10 µM (RAW264.7, Batch 3, luteolin 10 μM/2.86 μg/mL) was 80.3%. It also gave an inhibition at 0.15625 µM (RAW264.7, Batch 4, luteolin 0.15625 μM/0.04 μg/mL) of 0.1%, an inhibition at 0.3125 µM (RAW264.7, Batch 4) of 0.1% and an inhibition at 0.625 µM (RAW264.7, Batch 4) of 0.1%. It also gave an inhibition at 1.25 µM (RAW264.7, Batch 4) of 0.1%, an inhibition at 2.5 µM (RAW264.7, Batch 4) of 0.1% and an inhibition at 5 µM (RAW264.7, Batch 4) of 35.9%. It also gave an inhibition at 0.078 µM (RAW264.7, Batch 5, luteolin 0.078 μM/0.02 μg/mL) of 0.1%, an inhibition at 0.156 µM (RAW264.7, Batch 5, luteolin 0.156 μM/0.04 μg/mL) of 0.1% and an inhibition at 0.3125 µM (RAW264.7, Batch 5) of 9.8%. It also gave an inhibition at 0.625 µM (RAW264.7, Batch 5) of 3.1%, an inhibition at 1.25 µM (RAW264.7, Batch 5) of 0.5% and an inhibition at 2.5 µM (RAW264.7, Batch 5) of 16.1%. For the same compound, the inhibition at 3.125 µM (RAW264.7, Batch 6) was 11.1%, the inhibition at 6.25 µM (RAW264.7, Batch 6) was 40.8% and the inhibition at 12.5 µM (RAW264.7, Batch 6) was 67.1%. For the same compound, the inhibition at 25 µM (RAW264.7, Batch 6) was 89.6%, the inhibition at 50 µM (RAW264.7, Batch 6) was 99.9% and the inhibition at 100 µM (RAW264.7, Batch 6) was 99.9%. The inhibition at 3.125 µM (RAW264.7, Batch 7) was 13.3%, the inhibition at 6.25 µM (RAW264.7, Batch 7) was 43.9% and the inhibition at 12.5 µM (RAW264.7, Batch 7) was 70.2%. For the same compound, the inhibition at 25 µM (RAW264.7, Batch 7) was 89.3%, the inhibition at 50 µM (RAW264.7, Batch 7) was 99.9% and the inhibition at 100 µM (RAW264.7, Batch 7) was 99.9%. For the same compound, the inhibition at 3.125 µM (RAW264.7, Batch 8) was 8.9%, the inhibition at 6.25 µM (RAW264.7, Batch 8) was 34.4% and the inhibition at 12.5 µM (RAW264.7, Batch 8) was 67.9%. It also gave an inhibition at 25 µM (RAW264.7, Batch 8) of 90.4%, an inhibition at 50 µM (RAW264.7, Batch 8) of 99.9% and an inhibition at 100 µM (RAW264.7, Batch 8) of 99.9%. For the same compound, the inhibition at 1.5625 µM (RAW264.7, Batch 9) was 4.9%, the inhibition at 3.125 µM (RAW264.7, Batch 9) was 26.5% and the inhibition at 6.25 µM (RAW264.7, Batch 9) was 67%. For the same compound, the inhibition at 12.5 µM (RAW264.7, Batch 9) was 87%, the inhibition at 25 µM (RAW264.7, Batch 9) was 94.2% and the inhibition at 50 µM (RAW264.7, Batch 9) was 98.3%.
